Measured values: patent US12492173B2, “Herbicidal substituted N-tetrazolyl aryl carboxamides” (Bayer Aktiengesellschaft, priority 2019, dated 2025)

Experiments:
Assay type in all cases: in vivo
[1] = test system: Matricaria inodora; experiment: Pre-emergence herbicidal action, MATIN; details: dosage 320 g/ha; for herbicidal activity MATIN: scored visually after 3 weeks vs untreated controls (100% = plants have died)
In short: (§1)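 Seeds sown in sandy loam in pots and covered with soil; compounds formulated as WP or EC were sprayed onto the soil surface as aqueous suspension/emulsion at 600 to 800 l/ha water with 0.2% wetting agent. Greenhouse growth; visual damage scored after 3 weeks versus untreated controls (100% = plants died, 0% = like control).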

[2] = test system: Pharbitis purpurea; experiment: Pre-emergence herbicidal action, PHBPU; details: for herbicidal activity PHBPU: dosage 320 g/ha, scored visually after 3 weeks vs untreated controls (100% = plants have died)
In short: as §1

[3] = test system: Veronica persica; experiment: Pre-emergence herbicidal action, VERPE; design: key to Herbicidal action against VERPE: % activity: 100 = plants have died, 0 = like control plants; details: for herbicidal activity VERPE: scored visually after 3 weeks vs untreated controls (100% = plants have died)
In short: as §1

[4] = test system: Amaranthus retroflexus; experiment: Post-emergence herbicidal action, AMARE; design: key: % herbicidal action vs untreated; 100 = plants died, 0 = like control
In short: (§2)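 After sowing into sandy loam, plants grew 2 to 3 weeks under greenhouse conditions until one leaf, then got a spray of compound as aqueous suspension or emulsion. Roughly three weeks on, activity was estimated visually against untreated pots.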

[5] = test system: Cyperus esculentus; experiment: Post-emergence herbicidal action, CYPES; design: key: % herbicidal action vs untreated; 100 = plants died, 0 = like control
In short: as §2

[6] = test system: Lolium multiflorum; experiment: Pre-emergence herbicidal action, LOLMU; details: dosage 320 g/ha, scored visually after 3 weeks vs untreated controls (100% = plants have died)
Text: 1. Pre-Emergence Herbicidal Action Against Harmful Plants Seeds of monocotyledonous and dicotyledonous weed plants and crop plants are laid out in sandy loam soil in wood-fiber pots and covered with soil. The compounds of the invention, formulated in the form of wettable powders (WP) or as emulsion concentrates (EC), are then applied to the surface of the covering soil in the form of an aqueous suspension or emulsion at a water application rate equating to 600 to 800 l/ha, with addition of 0.2% wetting agent. After the treatment, the pots are placed in a greenhouse and kept under good growth conditions for the trial plants. The damage to the test plants is scored visually after a test period of 3 weeks by comparison with untreated controls (herbicidal activity in percent (%): 100% activity=the plants have died, 0% activity=like control plants). […] The tables below illustrate, in an exemplary manner, the […] herbicidal action of the compounds according to the invention, the herbicidal activity being stated in percent. [table] In the experiments that follow, herbicidal action of numerous inventive compounds and the known compounds that are structurally closest from D1 (WO 2012/028579 A1) and D2 (WO 2018/202535 A1) were compared under the above-specified conditions by the pre-emergence and post-emergence method. The example numbers given in the tables relate to the compounds disclosed in the respective documents. In addition to the compounds disclosed in D1 and D2, the following compounds V-1 to V-14 that are encompassed by D1 or D2 but are not compounds specified therein were used in the comparative experiments: • V-1: 2-(methylsulfanyl)-3-(methylsulfinyl)-N-(1-methyl-1H-tetrazol-5-yl)-4-(trifluoromethyl)benzamide • V-2: 2-(methylsulfanyl)-3-(methylsulfonyl)-N-(1-methyl-1H-tetrazol-5-yl)-4-(trifluoromethyl)benzamide • V-3: 2,3-bis(ethylsulfanyl)-N-(1-methyl-1H-tetrazol-5-yl)-4-(trifluoromethyl)benzamide • V-4: 2-chloro-3-(ethylsulfanyl)-N-(1-methyl-1H-tetrazol-5-yl)-4-(trifluoromethyl)benzamide • V-5: 2-chloro-4-iodo-3-(methylsulfanyl)-N-(1-methyl-1H-tetrazol-5-yl)benzamide • V-6: 2-chloro-4-iodo-3-(methylsulfinyl)-N-(1-methyl-1H-tetrazol-5-yl)benzamide • V-7: 2-chloro-4-iodo-3-(methylsulfonyl)-N-(1-methyl-1H-tetrazol-5-yl)benzamide • V-8: 2-bromo-3-(methylsulfanyl)-N-(1-methyl-1H-tetrazol-5-yl)-4-(trifluoromethyl)benzamide • V-9: 2-bromo-3-(methylsulfinyl)-N-(1-methyl-1H-tetrazol-5-yl)-4-(trifluoromethyl)benzamide • V-10: 2-bromo-3-(methylsulfonyl)-N-(1-methyl-1H-tetrazol-5-yl)-4-(trifluoromethyl)benzamide • V-11: 2-bromo-3-(ethylsulfanyl)-N-(1-methyl-1H-tetrazol-5-yl)-4-(trifluoromethyl)benzamide • V-12: 2-bromo-3-(ethylsulfinyl)-N-(1-methyl-1H-tetrazol-5-yl)-4-(trifluoromethyl)benzamide • V-13: 2-bromo-3-(ethylsulfonyl)-N-(1-methyl-1-1H-tetrazol-5-yl)-4-(trifluoromethyl)benzamide • V-14: 2-cyclopropyl-3-(ethylsulfanyl)-N-(1-methyl-1H-tetrazol-5-yl)-4-(trifluoromethyl)benzamide Herbicidal Pre-Emergence Action: […]

[7] = comparative experiment, 20 g of a.i./ha

SMILES | herbicidal activity MATIN [1] | herbicidal activity PHBPU [2] | herbicidal activity VERPE ([3]; dosage 320 g/ha) | herbicidal action AMARE ([4]; Dosage 80 g/ha) | other results
CCSCc1c(C(F)(F)F)ccc(C(=O)Nc2nnnn2C)c1C [Example 1-86] | 100% | 80% | 100% | – | herbicidal action AMARE ([4]; post-emergence, dosage 80 g/ha): 80%; herbicidal action CYPES ([5]; post-emergence, dosage 80 g/ha): 80%
CSCc1c(C(F)F)ccc(C(=O)Nc2nnnn2C)c1C [Example 1-107, 4-(difluoromethyl)-2-methyl-3-[(methylsulfanyl)methyl]-N-(1-methyl-1H-tetrazol-5-yl)benzamide] | 100% | 90% | 100% | 90 | –
Cc1c(C(=O)Nc2nnnn2C)ccc(C(F)F)c1CS(C)(=O)=O [Example 1-109] | 90% | 80% | 80% | 100 | Herbicidal action against AMARE ([4]; comparative experiment, post-emergence, 5 g of a.i./ha): 100; herbicidal action CYPES ([5]; Dosage 80 g/ha): 80
COc1c(C(=O)Nc2nnnn2C)ccc(C(F)(F)F)c1CSC [Example 1-134] | 100% | 80% | 100% | 100 | Herbicidal action against PHBPU [2, 7]: 20; Herbicidal action against AMARE ([4]; post-emergence, dosage 80 g/ha): 100
CCSCc1c(C(F)F)ccc(C(=O)Nc2nnnn2C)c1SCC [Example 1-191] | 100% | – | 100% | 80 | herbicidal activity LOLMU [6]: 80%
CSCc1c(C(F)(F)F)ccc(C(=O)Nc2nnnn2C)c1F [Example 1-242] | 100% | – | 100% | 100 | herbicidal action CYPES ([5]; Dosage 80 g/ha): 80
Cn1nnnc1NC(=O)c1ccc(C(F)(F)F)c(C[S+](C)[O-])c1F (centres unmarked) [Example 1-243] | 100% | 80% | 100% | 90 | –
Cn1nnnc1NC(=O)c1ccc(C(F)(F)F)c(CS(C)(=O)=O)c1F [Example 1-244] | 100% | 90% | 100% | 90 | –
Cc1ccc(C(=O)Nc2nnnn2C)c(Cl)c1CS(C)(=O)=O [Example 1-289] | 100% | – | 100% | 100 | –
CCS(=O)(=O)Cc1c(C(F)(F)F)ccc(C(=O)Nc2nnnn2C)c1Cl [Example 1-301] | 100% | 100% | 100% | 80 | –
C=CCSCc1c(C(F)(F)F)ccc(C(=O)Nc2nnnn2C)c1Cl [Example 1-308] | 100% | 100% | 100% | – | herbicidal action AMARE ([4]; post-emergence, dosage 80 g/ha): 100%; herbicidal action CYPES ([5]; post-emergence, dosage 80 g/ha): 90%
Cn1nnnc1NC(=O)c1ccc(C(F)(F)F)c(CS(C)(=O)=O)c1Br [Example 1-382, 2-bromo-3-[(methylsulfonyl)methyl]-N-(1-methyl-1H-tetrazol-5-yl)-4-(trifluoromethyl)benzamide] | 100% | – | 100% | 100 | Herbicidal action against VERPE [3, 7]: 100
CCn1nnnc1NC(=O)c1ccc(S(C)(=O)=O)c(CS(C)(=O)=O)c1C [Example 2-39] | – | – | – | 100 | herbicidal action MATIN [1]: 100%; herbicidal action VERPE ([3]; dosage 320 g/ha): 100%; herbicidal action CYPES ([5]; Dosage 80 g/ha): 80
CCn1nnnc1NC(=O)c1ccc(C(F)F)c(CSC)c1C [Example 2-107] | 100% | – | 100% | 90 | –
CCn1nnnc1NC(=O)c1ccc(C(F)(F)F)c(C[S+](C)[O-])c1OC (centres unmarked) [Example 2-135] | 100% | – | 100% | 100 | –
CCn1nnnc1NC(=O)c1ccc(C(F)(F)F)c(CS(C)(=O)=O)c1OC [Example 2-136] | 100% | – | 100% | 100 | –
CCn1nnnc1NC(=O)c1ccc(C(F)(F)F)c(CS(C)(=O)=O)c1SC [Example 2-163] | 100% | 90% | 100% | 100 | –
CCn1nnnc1NC(=O)c1ccc(C)c(CSC)c1Cl [Example 2-287] | 100% | – | 100% | 90 | –
CCn1nnnc1NC(=O)c1ccc(C(F)(F)F)c(CS(C)(=O)=O)c1Br [Example 2-382] | 100% | – | 100% | 90 | herbicidal activity LOLMU [6]: 80%
CCCn1nnnc1NC(=O)c1ccc(C(F)(F)F)c(CS(=O)(=O)CC)c1C [Example 3-88] | 100% | 90% | 100% | 80 | –
CCCn1nnnc1NC(=O)c1ccc(C(F)F)c(CSC)c1C [Example 3-107] | 100% | – | 100% | 90 | –
CCCn1nnnc1NC(=O)c1ccc(C(F)(F)F)c(CSC)c1OC [Example 3-134] | 100% | – | 100% | 100 | –
CCCn1nnnc1NC(=O)c1ccc(C(F)(F)F)c(CS(C)(=O)=O)c1OC [Example 3-136] | 100% | – | 100% | 100 | –
CCCn1nnnc1NC(=O)c1ccc(C(F)(F)F)c(CSC)c1Cl [Example 3-296] | 100% | – | 100% | 100 | herbicidal activity LOLMU [6]: 80%
CCCn1nnnc1NC(=O)c1ccc(C(F)(F)F)c(C[S+](C)[O-])c1Cl (centres unmarked) [Example 3-297] | 100% | 80% | 100% | – | herbicidal action AMARE ([4]; post-emergence, dosage 80 g/ha): 100%; herbicidal action CYPES ([5]; post-emergence, dosage 80 g/ha): 80%
CCCn1nnnc1NC(=O)c1ccc(C(F)(F)F)c(CSCC)c1Cl [Example 3-299] | 100% | – | 100% | 90 | herbicidal activity LOLMU [6]: 90%
CCCn1nnnc1NC(=O)c1ccc(C(F)F)c(CSC)c1Cl [Example 3-320] | 100% | – | 100% | 80 | –
CCCn1nnnc1NC(=O)c1ccc(C(F)F)c(C[S+]([O-])CC)c1Cl (centres unmarked) [Example 3-324] | 100% | 90% | – | – | herbicidal action CYPES ([5]; Dosage 80 g/ha): 90
CCCn1nnnc1NC(=O)c1ccc(C(F)(F)F)c(CSC)c1Br [Example 3-380] | 100% | 90% | 90% | – | –
CCCn1nnnc1NC(=O)c1ccc(C(F)(F)F)c(C[S+](C)[O-])c1Br (centres unmarked) [Example 3-381] | 100% | – | 100% | – | herbicidal action AMARE ([4]; post-emergence, dosage 80 g/ha): 90%; herbicidal action CYPES ([5]; post-emergence, dosage 80 g/ha): 90%
